{"source": "the supplement of paper PMC10307832", "data": [{"compound": "Cc1ccc(NC(=O)c2ccc(CN3CCN(C)CC3)cc2)cc1Nc1nc(-c2cccnc2)cs1 [Masitinib] + Cc1nc(Nc2ncc(C(=O)Nc3c(C)cccc3Cl)s2)cc(N2CCN(CCO)CC2)n1 [Dasatinib] (partner 0.075 µM)", "assay": "relative viability (nuclei count vs DMSO), 5 days (fraction); higher = more cells survive", "conditions": "first compound 0.01 µM", "procedure,_shortened": "(§1)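 A single step with final 0.05% Triton X-100, 1% formaldehyde and 1 ug/ml Hoechst fixed the cells and stained nuclei 5 days after treatment. Lung cancer cell lines in 1536-well plates had been treated by pin tool the day after seeding with one drug alone or a fixed anchor-drug dose plus five library-drug doses (not always all listed) in √10 steps, and nuclei were counted on 4× images. Relative viability is the ratio of nuclei in treated wells to nuclei in vehicle wells, taken as the median of duplicate plates.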", "values": [{"cell line": "NCI-H1650", "relative viability": 0.366}, {"cell line": "NCI-H1993", "relative viability": 0.554}, {"cell line": "SK-LU-1", "relative viability": 0.157}, {"cell line": "NCI-H661", "relative viability": 0.883}, {"cell line": "RERF-LC-KJ", "relative viability": 0.881}]}, {"compound": "Cc1ccc(NC(=O)c2ccc(CN3CCN(C)CC3)cc2)cc1Nc1nc(-c2cccnc2)cs1 [Masitinib] + Cc1nc(Nc2ncc(C(=O)Nc3c(C)cccc3Cl)s2)cc(N2CCN(CCO)CC2)n1 [Dasatinib] (partner 0.075 µM)", "assay": "relative viability (nuclei count vs DMSO), 5 days (fraction); higher = more cells survive", "conditions": "first compound 0.03162 µM", "procedure,_shortened": "as §1", "values": [{"cell line": "NCI-H1650", "relative viability": 0.32}, {"cell line": "NCI-H1993", "relative viability": 0.508}, {"cell line": "SK-LU-1", "relative viability": 0.202}, {"cell line": "NCI-H661", "relative viability": 1.03}, {"cell line": "RERF-LC-KJ", "relative viability": 0.806}]}, {"compound": "Cc1ccc(NC(=O)c2ccc(CN3CCN(C)CC3)cc2)cc1Nc1nc(-c2cccnc2)cs1 [Masitinib] + Cc1nc(Nc2ncc(C(=O)Nc3c(C)cccc3Cl)s2)cc(N2CCN(CCO)CC2)n1 [Dasatinib] (partner 0.075 µM)", "assay": "relative viability (nuclei count vs DMSO), 5 days (fraction); higher = more cells survive", "conditions": "first compound 0.1 µM", "procedure,_shortened": "as §1", "values": [{"cell line": "NCI-H1650", "relative viability": 0.348}, {"cell line": "NCI-H1993", "relative viability": 0.577}, {"cell line": "SK-LU-1", "relative viability": 0.174}, {"cell line": "NCI-H661", "relative viability": 1.04}, {"cell line": "RERF-LC-KJ", "relative viability": 0.975}]}, {"compound": "Cc1ccc(NC(=O)c2ccc(CN3CCN(C)CC3)cc2)cc1Nc1nc(-c2cccnc2)cs1 [Masitinib] + Cc1nc(Nc2ncc(C(=O)Nc3c(C)cccc3Cl)s2)cc(N2CCN(CCO)CC2)n1 [Dasatinib] (partner 0.075 µM)", "assay": "relative viability (nuclei count vs DMSO), 5 days (fraction); higher = more cells survive", "conditions": "first compound 0.3162 µM", "procedure,_shortened": "as §1", "values": [{"cell line": "NCI-H1650", "relative viability": 0.276}, {"cell line": "NCI-H1993", "relative viability": 0.532}, {"cell line": "SK-LU-1", "relative viability": 0.195}, {"cell line": "NCI-H661", "relative viability": 0.795}, {"cell line": "RERF-LC-KJ", "relative viability": 0.667}]}, {"compound": "Cc1ccc(NC(=O)c2ccc(CN3CCN(C)CC3)cc2)cc1Nc1nc(-c2cccnc2)cs1 [Masitinib] + Cc1nc(Nc2ncc(C(=O)Nc3c(C)cccc3Cl)s2)cc(N2CCN(CCO)CC2)n1 [Dasatinib] (partner 0.075 µM)", "assay": "relative viability (nuclei count vs DMSO), 5 days (fraction); higher = more cells survive", "conditions": "first compound 1 µM", "procedure,_shortened": "as §1", "values": [{"cell line": "NCI-H1650", "relative viability": 0.27}, {"cell line": "NCI-H1993", "relative viability": 0.52}, {"cell line": "SK-LU-1", "relative viability": 0.18}, {"cell line": "NCI-H661", "relative viability": 0.658}, {"cell line": "RERF-LC-KJ", "relative viability": 0.702}]}, {"compound": "Cc1ccc(NC(=O)c2ccc(CN3CCN(C)CC3)cc2)cc1Nc1nc(-c2cccnc2)cs1 [Masitinib] + O=C(CCCCCCC(=O)Nc1ccccc1)NO [Vorinostat] (partner 1 µM)", "assay": "relative viability (nuclei count vs DMSO), 5 days (fraction); higher = more cells survive", "conditions": "first compound 0.01 µM", "procedure,_shortened": "as §1", "values": [{"cell line": "NCI-H1650", "relative viability": 0.492}, {"cell line": "NCI-H1993", "relative viability": 0.727}, {"cell line": "SK-LU-1", "relative viability": 0.779}, {"cell line": "NCI-H661", "relative viability": 0.785}, {"cell line": "RERF-LC-KJ", "relative viability": 0.587}]}, {"compound": "Cc1ccc(NC(=O)c2ccc(CN3CCN(C)CC3)cc2)cc1Nc1nc(-c2cccnc2)cs1 [Masitinib] + O=C(CCCCCCC(=O)Nc1ccccc1)NO [Vorinostat] (partner 1 µM)", "assay": "relative viability (nuclei count vs DMSO), 5 days (fraction); higher = more cells survive", "conditions": "first compound 0.03162 µM", "procedure,_shortened": "as §1", "values": [{"cell line": "NCI-H1650", "relative viability": 0.402}, {"cell line": "NCI-H1993", "relative viability": 0.527}, {"cell line": "SK-LU-1", "relative viability": 0.844}, {"cell line": "NCI-H661", "relative viability": 0.801}, {"cell line": "RERF-LC-KJ", "relative viability": 0.783}]}, {"compound": "Cc1ccc(NC(=O)c2ccc(CN3CCN(C)CC3)cc2)cc1Nc1nc(-c2cccnc2)cs1 [Masitinib] + O=C(CCCCCCC(=O)Nc1ccccc1)NO [Vorinostat] (partner 1 µM)", "assay": "relative viability (nuclei count vs DMSO), 5 days (fraction); higher = more cells survive", "conditions": "first compound 0.1 µM", "procedure,_shortened": "as §1", "values": [{"cell line": "NCI-H1650", "relative viability": 0.549}, {"cell line": "NCI-H1993", "relative viability": 0.943}, {"cell line": "SK-LU-1", "relative viability": 0.744}, {"cell line": "NCI-H661", "relative viability": 0.774}, {"cell line": "RERF-LC-KJ", "relative viability": 0.752}]}, {"compound": "Cc1ccc(NC(=O)c2ccc(CN3CCN(C)CC3)cc2)cc1Nc1nc(-c2cccnc2)cs1 [Masitinib] + O=C(CCCCCCC(=O)Nc1ccccc1)NO [Vorinostat] (partner 1 µM)", "assay": "relative viability (nuclei count vs DMSO), 5 days (fraction); higher = more cells survive", "conditions": "first compound 0.3162 µM", "procedure,_shortened": "as §1", "values": [{"cell line": "NCI-H1650", "relative viability": 0.437}, {"cell line": "NCI-H1993", "relative viability": 0.723}, {"cell line": "SK-LU-1", "relative viability": 0.926}, {"cell line": "NCI-H661", "relative viability": 0.805}, {"cell line": "RERF-LC-KJ", "relative viability": 0.541}]}, {"compound": "Cc1ccc(NC(=O)c2ccc(CN3CCN(C)CC3)cc2)cc1Nc1nc(-c2cccnc2)cs1 [Masitinib] + O=C(CCCCCCC(=O)Nc1ccccc1)NO [Vorinostat] (partner 1 µM)", "assay": "relative viability (nuclei count vs DMSO), 5 days (fraction); higher = more cells survive", "conditions": "first compound 1 µM", "procedure,_shortened": "as §1", "values": [{"cell line": "NCI-H1650", "relative viability": 0.512}, {"cell line": "NCI-H1993", "relative viability": 0.762}, {"cell line": "SK-LU-1", "relative viability": 0.774}, {"cell line": "NCI-H661", "relative viability": 0.821}, {"cell line": "RERF-LC-KJ", "relative viability": 0.646}]}]}
